Measured values taken from US20230201290A1, “TGF-BETA INHIBITION, AGENTS AND COMPOSITION THEREFOR” (GMP BIOTECHNOLOGY LIMITED, priority 2020, published 2023).

Test system: solid tumors
Experiment: Phase I/II study P001, i.v. trabedersen: all patients, MTD and DLT
Type: in vivo, human
Excerpt: P001 is a completed Phase I/II dose escalation study. Primary objective is the determination of the MTD as well as the DLT of 2 cycles as core treatment and up to 8 optional extension cycles of trabedersen administered i.v. for 4 or 7 d every other week, as described in the following. The study followed a classical cohort design with 3 evaluable patients per cohort. Patients treated with the 1st schedule received trabedersen continuously for 7 d, followed by a treatment-free interval of 7 d for each treatment cycle (7-d-on, 7-d-off). After the MTD had been reached for this schedule, a 2nd schedule of 4 d trabedersen administration, followed by a treatment-free interval of 10 d for each treatment cycle was started (4-d-on, 10-d-off). In this treatment schedule the MTD has not been reached.
Primary objective of the study is the determination of the maximum tolerated dose (MTD) as well as the dose limiting toxicity (DLT) of two cycles of Trabedersen administered every other week. Secondary objectives include safety and tolerability, pharmacokinetic profile and potential antitumor activity of intravenous Trabedersen treatment.
Trabedersen was administered as i.v. continuous infusion for 4 or 7 days every other week via an implanted subcutaneous port system connected to a portable pump and with a flow rate of 0.8 mL/h. The core treatment consisted of 2 treatment cycles. Up to 8 optional extension cycles were administered in case of clinical benefit.
The dose escalation followed a classical cohort design with at least 3 and up to 6 patients per cohort receiving Trabedersen. The starting dose was chosen based on the Lowest-Observed-Adverse-Effect Level (LOAEL) determined in monkeys as the most relevant species. […] The Data and Safety Monitoring Board (DSMB) regularly reviewed available safety and efficacy data before each escalation step. Generally, if patients of one cohort had tolerated the therapy, the next cohort received the next higher dose. Toxicity was assessed based on National Cancer Institute-Common Toxicity Criteria (NCI-CTC, version 2). A DLT was defined as an at least possibly related, medically important adverse event, of NCI-CTC grade 3 or 4, a worsening by ≥2 grades from baseline for renal or hepatic toxicities, a worsening by ≥3 grades from baseline for other laboratory parameters, or other toxicities considered dose-limiting by the investigator. If more than 2 patients of a cohort had DLTs, the next lower dose was defined as MTD. Dose-escalation had to be stopped if MTD was reached.
The overall survival is calculated for all patients as the survival time from the onset of treatment with study medication to death due to any cause and analyzed with the Kaplan-Meier method.
Altogether 33 patients with advanced pancreatic cancer, malignant melanoma, or colorectal cancer were enrolled for dose escalation (Table 15). Patients treated in the first treatment schedule received Trabedersen continuously for 7 days, followed by a treatment-free interval of 7 days for each treatment cycle (7-days-on, 7-days-off).
After the MTD had been reached in the 7-days-on, 7-days-off schedule, a second dose escalation was started using a modified treatment schedule with 4 days Trabedersen administration, followed by a treatment-free interval of 10 days for each treatment cycle (4-days-on, 10-days-off).

[1] = 4-days-on, 10-days-off, 140 mg/m^2/day

cggcatgtct attttgta (antisense CGGCATGTCTATTTTGTA; chemistry not given here) [OT-101, synthetic antisense oligodeoxynucleotide against TGF-beta2]
Dose limiting toxicities (NCI-CTC grade) [1]: — 1 gastrointestinal bleeding (3)
Median Overall Survival, All patients [1]: 14.5 months
Median Overall Survival, All patients (4-days-on, 10-days-off, 140 mg/m^2/day (additional patients)): 6.0^2 months
Median Overall Survival, All patients (4-days-on, 10-days-off, 190 mg/m^2/day): 9.3 months
Median Overall Survival, All patients (4-days-on, 10-days-off, 250 mg/m^2/day): 9.8 months
Median Overall Survival, All patients (4-days-on, 10-days-off, 330 mg/m^2/day): 3.0 months
MTD (4-days-on, 10-days-off, 140 to 330 mg/m^2/day): without reaching an MTD
MTD (7-days-on, 7-days-off schedule): 160 mg/m^2/day
Median Overall Survival, All patients (7-days-on, 7-days-off, 40 mg/m^2/day): 6.9 months
Median Overall Survival, All patients (7-days-on, 7-days-off, 80 mg/m^2/day): 9.2 months
Median Overall Survival, All patients (7-days-on, 7-days-off, 160 mg/m^2/day): 2.9 months
Median Overall Survival, All patients (7-days-on, 7-days-off, 240 mg/m^2/day): 6.5 months
Dose limiting toxicities (NCI-CTC grade) (7-days-on, 7-days-off, 240 mg/m^2/day, listed as Trabedersen): 2 thrombocytopenias, 1 exanthema and — 1 exanthema (3) and — 2 thrombocytopenias (3)
